{
  "source": "PubChem BioAssay AID504928",
  "about": "(The Scripps Research Institute Molecular Screening Center, 2011)",
  "test_in_all_cases": "cell viability loss in various cell types – MTT absorbance, EuMyc, HS578, 70Z/3, T47D, SKBR, late-stage follow-up (AID 504928)",
  "conditions_in_all_cases": "tumor cell line panel viability, at 10 µM, active compounds read low",
  "key": {"[1]": {"tested_on": "70Z/3 Cell Line"}, "[2]": {"tested_on": "9E10 Cell Line"}, "[3]": {"tested_on": "EuMyc Lymphoma Cell Line"}, "[4]": {"tested_on": "HS578 Cell Line"}, "[5]": {"tested_on": "Jurkat Cell Line"}, "[6]": {"tested_on": "MCF7 Cell Line"}, "[7]": {"tested_on": "MD-MDA-231 Cell Line"}, "[8]": {"tested_on": "Raji Cell Line"}, "[9]": {"tested_on": "SKBR Cell Line"}, "[10]": {"tested_on": "T47D Cell Line"}},
  "note": "Calls of active or inactive are those of the source. The rule behind the calls is not given here.",
  "data": [
    {"compound": "O=c1cc(N2CCN(c3cccc(Cl)c3)CC2)[nH]c(=O)n1C1CCCCC1", "values": [
      {"measurement": "viability fold change", "setting": "[1]", "result": 0.5},
      {"measurement": "viability fold change", "setting": "[2]", "result": "0.8 (inactive)"},
      {"measurement": "viability fold change", "setting": "[3]", "result": "0.63 (inactive)"},
      {"measurement": "viability fold change", "setting": "[4]", "result": 0.16},
      {"measurement": "viability fold change", "setting": "[5]", "result": 0.19},
      {"measurement": "viability fold change", "setting": "[6]", "result": 0.17},
      {"measurement": "viability fold change", "setting": "[7]", "result": 0.11},
      {"measurement": "viability fold change", "setting": "[8]", "result": 0.19},
      {"measurement": "viability fold change", "setting": "[9]", "result": 0.19},
      {"measurement": "viability fold change", "setting": "[10]", "result": 0.19}
    ]}
  ]
}
